This note sets out measurements from patent US20120189706A1, “Macrocystis Pyrifera Derived Health and Wellness Products and Methods of Using the Same” (Knocean Sciences, Inc., priority 2009, published 2012).

In brackets after ≈: the same amount, converted by molar mass.

In data set [1] the test system is HIV-1 strain IIIB. The experiment in a line: HIV-1 Cytoprotection assay. It is filed as cell-based.
Data set [2] relates to CEM-SS cells.
Data set [3] relates to HSV-1 strain HF. The experiment in a line: HSV Cytoprotection assay. It is filed as cell-based. How it is done:
The HSV Cytoprotection assay uses Vero cells and HSV-1 strain HF or HSV-2 strain MS. […] Each assay includes acyclovir (ACV) as a positive control. […] The standard viruses used for this assay are HSV-1 strain HF and HSV-2 strain MS (other viruses available upon request). […] For each assay, a pre-titered aliquot of virus is removed from the freezer (−80° C.) and allowed to thaw slowly to room temperature in a biological safety cabinet. The virus is resuspended and diluted into tissue culture medium such that the amount of virus added to each well is the amount determined to give between 85 to 95% cell killing at 5 days post-infection.

A short description of data set [4]: Compound cytotoxicity in HSV Cytoprotection assay (MTS). It counts as cell-based. The following applies: African green monkey (Cercopithecus aethiops), Vero cells (uninfected, cells plus compound only), read-out: TC50.
The subject of data set [5] is Rhinovirus strain 1B. The experiment in a line: Rhinovirus Cytoprotection assay in MRC-5 cells. It is filed as cell-based. How it is done: The Rhinovirus Cytoprotection assay uses MRC-5 cells and Rhinovirus strains 1B, 14, or 26. […] Each assay includes enviroxime (ENV) as a positive control. […] The viruses used for this assay are Rhinovirus strains 1B, 14, or 26. […] For each assay, a pre-titered aliquot of virus is removed from the freezer (−80° C.) and allowed to thaw slowly to room temperature in a biological safety cabinet. The virus is resuspended and diluted into tissue culture medium such that the amount of virus added to each well is the amount determined to give between 85 to 95% cell killing at 6-7 days post-infection.

The subject of data set [6] is MRC-5 cells. The data set is described as follows: Compound cytotoxicity in Rhinovirus Cytoprotection assay (MTS). It counts as cell-based, Human. The following applies: 7 days. The text has this: The Rhinovirus Cytoprotection assay uses MRC-5 cells and Rhinovirus strains 1B, 14, or 26. […] Each assay includes enviroxime (ENV) as a positive control.
Data set [7] deals with Influenza A strain A/Victoria/3/75 (H3N2). The data set is described as follows: Influenza A Cytoprotection assay. The following applies: Influenza A virus, H3N2, 168 h, MDCK cells, 7 days. It is filed as cell-based.
The subject of data set [8] is RSV strain Long. The experiment in a line: Respiratory Syncytial Virus (RSV) Cytoprotection assay. It is filed as cell-based. The following applies: human respiratory syncytial virus, 168 h, A549 cells, 7 days. How it is done: The Respiratory Syncytial Virus (RSV) Cytoprotection assay uses A549 cells and RSV strain Long. […] Each assay includes ribavirin (RBV) as a positive control. […] The virus used for this assay is RSV strain Long. […] For each assay, a pre-titered aliquot of virus is removed from the freezer (−80° C.) and allowed to thaw slowly to room temperature in a biological safety cabinet. The virus is resuspended and diluted into tissue culture medium such that the amount of virus added to each well is the amount determined to give between 85 to 95% cell killing at 6-7 days post-infection.

Data set [9] concerns Coxsackie A strain A7. The data set is described as follows: Coxsackie A virus Cytoprotection assay. It counts as cell-based. Conditions: MRC5, 168 h, MRC-5 cells, 7 days. How it is done:
The Coxsackie A virus Cytoprotection assay uses MRC-5 cells and Coxsackie A strains A7 or A21. […] Each assay includes ribavirin (RBV) as a positive control. […] The viruses used for this assay are Coxsackie A strains A7 or A21. […] For each assay, a pre-titered aliquot of virus is removed from the freezer (−80° C.) and allowed to thaw slowly to room temperature in a biological safety cabinet. The virus is resuspended and diluted into tissue culture medium such that the amount of virus added to each well is the amount determined to give between 85 to 95% cell killing at 7 days post-infection.

The subject of data set [10] is Vero E6 cells. The experiment in a line: Compound cytotoxicity in Dengue Virus Cytoprotection assay (MTS). Conditions: 7 days.

What is called IC50 is the concentration needed to halve the response being measured. In [1] (HIV-1 Strain IIIB, CEM-SS cells, 6 days), `Cc1cn([C@H]2C[C@H](N=[N+]=[N-])[C@@H](CO)O2)c(=O)[nH]c1=O` [AZT] yielded an IC50 of 0.172 µM. Also, the “Antiviral Index” value in data set [1] (TC50/IC50, HIV-1) is listed as more than 5.83. In [2], this molecule returned a CC50 of more than 1 µM.

`Nc1nc2c(ncn2COCCO)c(=O)[nH]1` [Acyclovir, acyclovir] displayed an IC50 in [3] (Human alphaherpesvirus 1, 120 h, HSV-1 Strain HF, Vero cells, 5 days) of 6.92 µM. Also, the “Antiviral Index” value in data set [3] (TC50/IC50, HSV-1) is on record as more than 14.5. Besides, the CC50 at 5 days in data set [4] is more than 100 µM.

`CC(C)S(=O)(=O)n1c(N)nc2ccc(/C(=N/O)c3ccccc3)cc21` [Enviroxime, enviroxime]: in data set [5] (Enterovirus, MRC5, 168 h, Rhinovirus Strain 1B, MRC-5 cells, 7 days), the IC50 came to 0.485 µg/mL (≈ 1.35 µM). Moreover, the “Antiviral Index” value in data set [5] (TC50/IC50, Rhinovirus) is more than 20.6. The same molecule displayed a TC50 in [6] of more than 10 µg/mL.

With `NC(=O)c1ncn([C@@H]2O[C@H](CO)[C@@H](O)[C@H]2O)n1` [Ribavirin, ribavirin], the figures for the IC50 in data set [7], in data set [8] and in data set [9] were 4.45 µg/mL (≈ 18.2 µM), 12.2 µg/mL (≈ 50 µM) and 7.04 µg/mL (≈ 28.8 µM), respectively. Also, the TC50 in data set [10] is more than 200 µg/mL.
